In US20210393616A1, “PHARMACEUTICAL COMPOSITIONS AND METHODS FOR TREATING PSYCHOSIS” (UNIVERSITA' DEGLI STUDI DI CAGLIARI, priority 2018, published 2021):

Assays:
rats [1] = test: Quinpirol-induced stereotypies; type: in vivo, rat
From the text: The data are the average of 6 rats and are expressed in total counts. *P<0.01 vs. treatment with physiological saline (Student's t-test).

human D2long receptor = biological target: T1, human D2long receptor (Homo sapiens, UniProt P14416); test: Replacement of [3H]methyl-spiperone binding from human D2long receptor expressed by HEK-293 cells
T1 construct: expressed in transfected cells; host or cells: HEK-293
Description: In particular, the receptor binding study was conducted by analysing the ability to replace the binding of [^3H]methyl-spiperone from the human D2long receptor expressed by HEK-293 cells (Hall, D. A. and Strange, P. G., 1997, Brit. J. Pharmacol. 121:731-736).

rats [2] = test: Amphetamine-induced hypermotility test; type: in vivo, rat; conditions: 3 mg/kg i.p.; amphetamine 2.5 mg/kg i.p.; FIG. 1
Description: Some behavioural tests were also conducted to identify possible antipsychotic properties of RS-79948-197.

rats [3] = test: Pre-pulse inhibition (PPI) deficit induced by MK-801; type: in vivo, rat; conditions: RS-79948-197 3 mg/kg i.p.; MK-801 0.1 mg/kg i.p.; FIG. 3
Description: The data are the average of 4-8 rats. *P<0.05, **P<0.01 vs. VEH+MK (one-way ANOVA followed by Tukey's Test).
The activity of RS-79948-197 was also evaluated on the deficit of “pre-pulse inhibition” (PPI) induced by MK-801, an antagonist of NMDA receptors of glutamate. As already mentioned previously, this latter test is considered the “gold standard” for the evaluation of the possible atypical antipsychotic activity of a drug and is predictive of the efficacy on negative symptoms, as well as on positive ones, of schizophrenia.

[4] = system: extracellular levels of dopamine; test: Microdialysis of extracellular dopamine in rat medial prefrontal cortex; type: in vivo; conditions: free-moving rats, RS-79948-197 3 mg/kg i.p., clozapine 2.5 mg/kg i.p., FIG. 4
Description: The drugs were administered at time T=60 min, as indicated by the arrow. The values are expressed as a percentage of the basal value (mean+/−SEM).
Also, the effect of RS-79948-197 on the extracellular levels of dopamine in the rat prefrontal cerebral cortex, through microdialysis in free-moving rats, was further evaluated. As can be clearly seen in the appended FIG. 4, the effects of the two drugs are substantially overlapping, as both have increased the extracellular concentration of dopamine up to about 250% of the respective basal value. Given the hypothesis of cortical hypodopaminergy in the etiopathogenesis of schizophrenia, the ability of a drug to increase the cortical dopamine is considered a favourable effect for its antipsychotic properties.

D2 receptors = test: Contractility of the rabbit ear artery, antagonism of the selective D2 agonist quinpirol; conditions: for antagonism of the effect of the selective D2 agonist quinpirol: 100 nM

T1 sequence (P14416 whole entry): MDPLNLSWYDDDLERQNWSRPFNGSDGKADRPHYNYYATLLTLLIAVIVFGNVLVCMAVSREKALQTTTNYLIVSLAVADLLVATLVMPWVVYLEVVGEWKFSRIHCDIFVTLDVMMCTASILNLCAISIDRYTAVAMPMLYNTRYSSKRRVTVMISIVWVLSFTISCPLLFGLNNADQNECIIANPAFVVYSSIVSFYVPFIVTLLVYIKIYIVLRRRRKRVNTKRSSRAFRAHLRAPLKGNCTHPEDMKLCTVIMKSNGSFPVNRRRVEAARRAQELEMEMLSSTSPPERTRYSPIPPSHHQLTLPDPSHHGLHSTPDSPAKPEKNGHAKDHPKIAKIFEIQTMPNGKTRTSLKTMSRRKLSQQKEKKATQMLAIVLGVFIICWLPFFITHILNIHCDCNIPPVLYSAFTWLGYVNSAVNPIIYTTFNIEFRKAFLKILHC

| SMILES | stereotypies induced by quinpirol (rats [1]; 3 mg/kg i.p., quinpirol 0.5 mg/kg i.p., FIG. 2) | extrapyramidal effects per se (rats [1]; rats) | affinity relative to that of clozapine (human D2long receptor; human D2long receptor) | Ki (human D2long receptor; human D2long receptor expressed by HEK-293 cells, read-out: Ki, inhibition of [3H]methyl-spiperone binding) [nM] | total distance travelled by rats in 120 minutes (rats [2]) | PPI deficit induced by MK-801 (rats [3]) | extracellular concentration of dopamine, percentage of basal value [4] | antagonism of the effect of the selective D2 agonist quinpirol (D2 receptors) | effect on quinpirol-induced release at higher concentrations (D2 receptors; higher concentrations than 100 nM) |
| --- | --- | --- | --- | --- | --- | --- | --- | --- | --- |
| CCS(=O)(=O)N1CCC[C@@H]2CN3CCc4cc(OC)ccc4[C@@H]3C[C@@H]21.Cl [RS-79948-197, (8aR,12aS,13aS)-5,8,8a,9,10, 11, 12, 12a, 13, 13a-decahydro-3-methoxy-12-(ethylsulphonyl)-6H-isoquino[2,1-g][1,6]naphthyridine] | effectively reduced | without inducing per se extrapyramidal effects | about twice | 95 | significantly decreased | effectively reduced | about 250 % of the respective basal value | 70% | completely cancelled |
| CCN1CCCC1CNC(=O)c1cc(S(N)(=O)=O)ccc1OC (stereo not shown) [sulpiride, reference compound] | – | – | – | – | – | – | – | about 40% | – |
